Experimental data reported in patent publication US20060241108A1, “Substituted phenoxazines and acridones as inhibitors of AKT” (St. Jude Children's Research Hospital, priority 2005, published 2006).

Experiments:
Assay type in all cases: cell-based, human
AKT = test: Inhibition of IGF-I stimulated AKT phosphorylation (Ser473) in Rh1 cells, Western blot; conditions: for Inhibition (phosphorylation of AKT at Ser 473): 5 μM, 1 hour, serum starved Rh1 cells, IGF-I 10 ng/ml 10 minutes, average of two experiments; for inhibition of cellular AKT activation: at the concentrations examined in this assay (1-5 μM)
Experimental: Cell lines and growth conditions. The human cell lines Rh1, Rh18, and Rh30 (ATCC Deposit # CRL 2061) have been described, e.g., by Hazelton et al. Cancer Res 1987;47:4501-4507 and Hosoi et al. Cancer Res. 1999;59:886-894. Rh1, Rh18 and Rh30 cells can each be grown in antibiotic free RPMI-1640 medium (available from BioWhittaker, Walkersville, Md.), supplemented with 10% fetal bovine serum (available from HyClone Laboratories, Logan, Utah) and 2 mM L-glutamine (available from BioWhittaker, Walkersville, Md.) at 37° C. in an atmosphere of 5% CO2. For serum free experiments, cells can be cultured in modified N2E (MN2E) medium (DMEM/F-12, 1:1 mixture) (Sigma, St. Louis, Mo.) supplemented with 1 μg/ml human holo transferrin, 30 nM sodium selenite, 20 nM progesterone, 100 μM putrescine, 30 nM vitamin E phosphate, and 50 μM ethanolamine. Cells in MN2E medium containing 5 μg/ml bovine fibronectin (available from Sigma, St. Louis, Mo.) are preferably plated, and allowed to attach overnight at 37° C. in a humidified, 5% CO2 atmosphere.
(§1) Cellular screening for inhibitors. Rh1, Rh18 and Rh30 cells can each be seeded at a density of 4×10^6/10-cm plate in serum-free medium for overnight attachment. The cells can then be exposed to 0.1% DMSO or to a test compound (for example, a phenoxazine or acridone compound) for one hour, then stimulated with Insulin-like growth factor-I (IGF-I) (10 ng/ml) for 10 minutes.
(§2) Western blot analysis. Cells are rapidly washed with ice-cold phosphate-buffered saline (PBS), placed on ice, and lysed in mammalian protein extraction reagent (M-PER; available from Pierce, Rockford, Ill.) containing one Complete™ mini protease inhibitor tablet (available from Boehringer Mannheim, Mannheim, Germany), 1 mM phenylmethylsulfonyl fluoride, 1 mM Na3VO4 and 1 mM NaF. Cellular debris is pelleted by centrifugation at 17,500×g for 10 minutes at 4° C. The protein concentration of the supernatants is measured by the bicinchoninic acid assay (e.g., using the BCA™ Protein Assay Kit, Pierce, Rockford, Ill., catalog number 23225 or 23227) using bovine serum albumin as the standard.
For the analysis of AKT, ERK-1/2, mTOR, p70S6 kinase, ribosomal protein S6 (rpS6 or S6), and glycogen synthase kinase 3 (GSK-3), equivalent amounts of protein can be separated on a 12% SDS-polyacrylamide gel (available from BioRad, Hercules, Calif.) by electrophoresis and subsequently transferred to a nitrocellulose membrane (also available from BioRad). After a 1 hour incubation in 1×TBS containing 0.05% Tween 20 and 5% blocking reagent (skim milk) (available from Upstate Biotechnology, Lake Placid, N.Y.) at room temperature, the wet nitrocellulose membranes are incubated with appropriate antibodies (available from Cell Signaling Technology, Beverly, Mass.): rabbit polyclonal antiserum specific for the phosphorylated Ser473 or Thr308 of AKT (dilution 1:1000); rabbit polyclonal antiserum specific for phosphorylated Thr202/Tyr204 of ERK-1/2 (dilution 1:1000); rabbit polyclonal antiserum specific for phosphorylated Ser2448 or Ser2481 of mTOR (dilution 1:1000); rabbit polyclonal antiserum specific for phosphorylated Thr389 of p70S6 kinase (dilution 1:4000); rabbit polyclonal antiserum specific for phosphorylated Ser235/236 of rpS6 (dilution 1:1000); or rabbit polyclonal antiserum specific for phosphorylated Ser21/9 of GSK-3α/β (dilution 1:1000). Horseradish peroxidase-conjugated goat anti-rabbit IgG antibody (dilution 1:10,000) can be used as the secondary antibody. Immunoreactive protein can be visualized using Renaissance chemiluminescence reagent (available from Life Science Products Inc., Boston, Mass.).
For these assays, Rh1 cells are seeded in serum-free medium for overnight attachment. The serum starved Rh1 cells are then exposed to 1-5 μM of a compound in Table I for 1 hour before stimulating with IGF-I (10 ng/ml) for 10 minutes. […]

[1] = system: Rh1, Rh18 and/or Rh30 cells; test: Determination of apoptosis, cell line not specified for the result
Source text: Determination of apoptosis.
Similar experiments can be performed using compounds that are relatively poor inhibitors of AKT in vitro but, preferably, are chemically similar to the phenoxazine or other compounds tested that are effective inhibitors of AKT. For example, the apoptosis of cells in response to the phenoxazine compound 12B or 20B, which are relatively poor inhibitors of AKT in vitro, can be compared to apoptosis of cells in response to the chemically similar compounds 10B and/or 15B, which are effective AKT inhibitors. In this way, a skilled practitioner can evaluate whether apoptosis observed in response to an effective AKT inhibitor (e.g., apoptosis observed in response to compound 10B or 15B) is due to a general toxic effect rather than AKT inhibition.

[2] = system: mTOR (Ser2448 and Ser2481), rpS6 (Ser235/236) and p70S6 kinase (Thr389); test: IGF-I induced phosphorylation of AKT downstream targets in Rh1 cells, Western blot; conditions: 3.5 to 5.0 μM, 1 hour, Rh1 cells serum-free, IGF-I 10 minutes
Experimental: as §1, §2
For the analysis of AKT, ERK-1/2, mTOR, p70S6 kinase, ribosomal protein S6 (rpS6 or S6), and glycogen synthase kinase 3 (GSK-3), equivalent amounts of protein can be separated on a 12% SDS-polyacrylamide gel (available from BioRad, Hercules, Calif.) by electrophoresis and subsequently transferred to a nitrocellulose membrane (also available from BioRad). […]

Molecule	Inhibition (phosphorylation of AKT at Ser 473) (AKT)	induction of apoptosis [1]	inhibition of cellular AKT activation (AKT)	inhibition of IGF-I induced phosphorylation of mTOR, rpS6 and p70S6 kinase [2]
10-(3′-N-piperidinopropyl)-2-chlorophenoxazine [Compound 6B]	++ (++ ≈ 50% inhibition)			
10-(3′-N-pyrrolidinopropyl)-2-chlorophenoxazine [Compound 7B]	+++ (+++ ≈ 75% inhibition)			
10-(4′-N-piperidinobutyl)-2-chlorophenoxazine [Compound 13B]	+++ (+++ ≈ 75% inhibition)	significant increase in the proportion of apoptotic cells		
10-(4′-N-piperidinobutyl)-2-trifluoromethylphenoxazine [Compound 13C]	+++ (+++ ≈ 75% inhibition)		minimal inhibition	
10-(4′-N-pyrrolidinobutyl)-2-chlorophenoxazine [Compound 14B]	+++ (+++ ≈ 75% inhibition)	significant increase in the proportion of apoptotic cells		
10-(4′-N-pyrrolidinobutyl)-phenoxazine [Compound 14A]	+++ (+++ ≈ 75% inhibition)		minimal inhibition	
10-[3′-[(β-hydroxyethyl)piperazino]propyl]-2-chlorophenoxazine [Compound 8B]	+++ (+++ ≈ 75% inhibition)			markedly inhibited
10-[4′-[(β-hydroxyethyl piperazino]butyl]-phenoxazine [Compound 15A]	+++ (+++ ≈ 75% inhibition)		minimal inhibition	
10-[[(β-hydroxyethyl) piperazino]acetyl]-2-chlorophenoxazine [Compound 21B]	−−− (−−− <25% inhibition)			
Clc1ccc2c(c1)Nc1ccccc1O2 [Compound 1B, 2-chlorophenoxazine]	+ (+ ≈ 25% inhibition)			
ClCCCN1c2ccccc2Oc2ccc(Cl)cc21 [Compound 2B, 10-(3′-chloropropyl)-2-chlorophenoxazine]	−−− (−−− <25% inhibition)			
CCN(CC)CCCN1c2ccccc2Oc2ccc(Cl)cc21 [Compound 3B, 10-[3′-(N-diethylamino)-propyl]-2-chlorophenoxazine]	++ (++ ≈ 50% inhibition)			
OCCN(CCO)CCCN1c2ccccc2Oc2ccccc21 [Compound 4A, 10-[3′-[N-bis(hydroxyethyl)amino]propyl]phenoxazine]	++ (++ ≈ 50% inhibition)		minimal inhibition	
OCCN(CCO)CCCN1c2ccccc2Oc2ccc(Cl)cc21 [Compound 4B, 10-[3′-[N-bis(hydroxyethyl)amino]propyl]-2-chlorophenoxazine]	++ (++ ≈ 50% inhibition)			
Clc1ccc2c(c1)N(CCCN1CCOCC1)c1ccccc1O2 [Compound 5B, 10-(3′-N-morpholinopropyl)-2-chlorophenoxazine]	−−− (−−− <25% inhibition)			
FC(F)(F)c1ccc2c(c1)N(CCCN1CCOCC1)c1ccccc1O2 [Compound 5C, 10-(3′-N-morpholinopropyl)-2-trifluoromethylphenoxazine]	−−− (−−− <25% inhibition)		minimal inhibition	
c1ccc2c(c1)Oc1ccccc1N2CCCN1CCCC1 [Compound 8A, 10-(3′-N-pyrrolidinopropyl)-phenoxazine]	++ (++ ≈ 50% inhibition)		minimal inhibition	
ClCCCCN1c2ccccc2Oc2ccc(Cl)cc21 [Compound 9B, 10-(4′-chlorobutyl)-2-chlorophenoxazine]	−−− (−−− <25% inhibition)			
OCCN(CCO)CCCCN1c2ccccc2Oc2ccccc21 [Compound 11A, 10-[4′-[N-bis(hydroxyethyl)amino]-butyl]phenoxazine]	+++ (+++ ≈ 75% inhibition)		minimal inhibition	
OCCN(CCO)CCCCN1c2ccccc2Oc2ccc(Cl)cc21 [Compound 11B, 10-[4′-[N-bis(hydroxyethyl)amino]butyl]-2-chlorophenoxazine]	+++ (+++ ≈ 75% inhibition)	significant increase in the proportion of apoptotic cells		
OCCN(CCO)CCCCN1c2ccccc2Oc2ccc(C(F)(F)F)cc21 [Compound 11C, 10-[4′-[N-bis(hydroxyethyl)amino]butyl]-2-trifluoromethyl phenoxazine]	+++ (+++ ≈ 75% inhibition)		minimal inhibition	
Clc1ccc2c(c1)N(CCCCN1CCOCC1)c1ccccc1O2 [Compound 12B, 10-(4′-N-morpholinobutyl)-2-chlorophenoxazine]	−−− (−−− <25% inhibition)	neither the compound 12B or 20B		
O=C(CCl)N1c2ccccc2Oc2ccc(Cl)cc21 [Compound 16B, 10-(chloroacetyl)-2-chlorophenoxazine]	−−− (−−− <25% inhibition)			
CCN(CC)CC(=O)N1c2ccccc2Oc2ccc(Cl)cc21 [Compound 17B, 10-[(N-diethylamino)acetyl]-2-chlorophenoxazine]	−−− (−−− <25% inhibition)			
O=C(CN1CCOCC1)N1c2ccccc2Oc2ccc(Cl)cc21 [Compound 18B, 10-(N-morpholinoacetyl)-2-chlorophenoxazine]	−−− (−−− <25% inhibition)			
O=C(CN1CCCCC1)N1c2ccccc2Oc2ccc(Cl)cc21 [Compound 19B, 10-(N-piperidinoacetyl)-2-chlorophenoxazine]	−−− (−−− <25% inhibition)			
c1ccc(CNCCCN2c3ccccc3Oc3ccccc32)cc1 [Compound 22A, 10-(3′-N-benzylaminopropyl)-phenoxazine]	+++ (+++ ≈ 75% inhibition)		minimal inhibition	
